Measured values: patent US20260184710A1, “CASITAS B-LINEAGE LYMPHOMA PROTOONCOGENE B (CBL-B) DEGRADING COMPOUNDS AND ASSOCIATED METHODS OF USE” (Arvinas Operations, Inc., priority 2022, published 2026)

Target: T1, Cbl-b (Homo sapiens, UniProt Q13191)
T1 construct: Cbl-b-HiBit KI Jurkat Cells were purchased from Promega; host or cells: Cbl-b-HiBiT knock-in Jurkat cells
Assay: Cbl-b Degradation Method B (Nano-Glo HiBiT lytic detection)
Assay type: cell-based
Details: Cbl-b-HiBit KI Jurkat Cells, incubated at least 6-24 hours; for DC50: half maximal degradation, read-out: Cbl-b Degredation Method B IC50; for Dmax: maximum degradation observed, read-out: Cbl-b Degredation Method B Dmax (%)
Method in brief: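 An 11-point, 3-fold compound dilution was applied for 6-24 hours to Jurkat cells carrying HiBiT-tagged endogenous Cbl-b. Lytic HiBiT luminescence quantified residual protein. Outputs are DC50 and Dmax relative to DMSO control.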

T1 sequence (Q13191 whole entry): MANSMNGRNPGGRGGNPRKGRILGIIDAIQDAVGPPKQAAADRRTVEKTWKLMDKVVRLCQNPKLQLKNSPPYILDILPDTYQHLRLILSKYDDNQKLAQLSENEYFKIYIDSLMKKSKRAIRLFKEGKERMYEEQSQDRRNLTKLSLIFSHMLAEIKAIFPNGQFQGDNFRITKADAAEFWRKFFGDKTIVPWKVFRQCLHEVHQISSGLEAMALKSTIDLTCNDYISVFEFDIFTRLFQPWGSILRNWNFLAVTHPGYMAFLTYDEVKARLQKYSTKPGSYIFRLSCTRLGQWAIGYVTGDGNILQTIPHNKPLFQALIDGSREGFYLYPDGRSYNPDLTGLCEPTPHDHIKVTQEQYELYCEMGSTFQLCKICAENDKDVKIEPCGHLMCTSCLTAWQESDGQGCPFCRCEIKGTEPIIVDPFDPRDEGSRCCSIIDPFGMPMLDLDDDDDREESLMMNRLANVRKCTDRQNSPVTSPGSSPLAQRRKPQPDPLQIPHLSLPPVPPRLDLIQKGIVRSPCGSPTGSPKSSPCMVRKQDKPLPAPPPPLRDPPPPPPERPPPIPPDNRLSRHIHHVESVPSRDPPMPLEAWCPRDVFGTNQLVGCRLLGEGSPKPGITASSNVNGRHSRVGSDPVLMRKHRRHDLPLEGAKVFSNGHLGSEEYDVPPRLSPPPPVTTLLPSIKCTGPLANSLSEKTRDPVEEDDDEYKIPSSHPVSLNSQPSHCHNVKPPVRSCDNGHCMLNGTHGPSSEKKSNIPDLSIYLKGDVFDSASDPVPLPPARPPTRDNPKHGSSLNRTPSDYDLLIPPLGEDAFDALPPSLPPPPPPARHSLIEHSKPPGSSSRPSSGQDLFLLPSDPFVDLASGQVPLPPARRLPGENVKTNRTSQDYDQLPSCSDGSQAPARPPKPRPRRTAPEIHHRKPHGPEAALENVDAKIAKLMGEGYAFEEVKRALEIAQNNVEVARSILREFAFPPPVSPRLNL

Row | SMILES | DC50 [nM] | Dmax [%]
1 | Cc1cc(N2C[C@@H]3C[C@H]2CN3CC2CCC3(CC2)CN(c2cc4c(c(C(F)(F)F)c2)CN(c2cccc([C@]5(Cc6nncn6C)C[C@@H](C#N)C5)c2)C4=O)C3)c(F)c2c1C(=O)N(C1CCC(=O)NC1=O)C2 (stereo partly drawn) [Example 271, (1r,3r)-3-{3-[6-(7-{[(1S,4S)-5-[2-(2,6-dioxopiperidin-3-yl)-4-fluoro-7-methyl-1-oxo-2,3-dihydro-1H-isoindol-5-yl]-2,5-diazabicyclo[2.2.1]heptan-2-yl]methyl}-2-azaspiro[3.5]nonan-2-yl)-1-oxo-4-(trifluoromethyl)-2,3-dihydro-1H-isoindol-2-yl]phenyl}-3-[(4-methyl-4H-1,2,4-triazol-3-yl)methyl]cyclobutane-1-carbonitrile] | 5 to 50 | 35 to 70
2 | Cc1cc(C2CCN(CC3CCC4(CC3)CN(c3cc5c(c(C(F)(F)F)c3)CN(c3cccc([C@]6(Cc7nncn7C)C[C@@H](C#N)C6)c3)C5=O)C4)CC2)c(F)c2c1C(=O)N(C1CCC(=O)NC1=O)C2 (stereo partly shown) [Example 272, (1r,3r)-3-(3-{6-[7-({4-[2-(2,6-dioxopiperidin-3-yl)-4-fluoro-7-methyl-1-oxo-2,3-dihydro-1H-isoindol-5-yl]piperidin-1-yl}methyl)-2-azaspiro[3.5]nonan-2-yl]-1-oxo-4-(trifluoromethyl)-2,3-dihydro-1H-isoindol-2-yl}phenyl)-3-[(4-methyl-4H-1,2,4-triazol-3-yl)methyl]cyclobutane-1-carbonitrile] | 5 to 50 | 35 to 70
3 | CC(C)n1c(=O)n(C2CCC(=O)NC2=O)c2ccc(N3CCC(CN4CCN(C[C@H]5CCCN(Cc6cc7c(c(C(F)(F)F)c6)CN(c6cccc(C8(Cc9nncn9C)CC(C#N)C8)c6)C7=O)C5)C(C)(C)C4)CC3)cc21 (stereo partly drawn) [Example 273, (1r*,3r*)-3-[3-(6-{[(3S)-3-{[4-({1-[1-(2,6-dioxopiperidin-3-yl)-2-oxo-3-(propan-2-yl)-2,3-dihydro-1H-1,3-benzodiazol-5-yl]piperidin-4-yl}methyl)-2,2-dimethylpiperazin-1-yl]methyl}piperidin-1-yl]methyl}-1-oxo-4-(trifluoromethyl)-2,3-dihydro-1H-isoindol-2-yl)phenyl]-3-[(4-methyl-4H-1,2,4-triazol-3-yl)methyl]cyclobutane-1-carbonitrile] | < 5 | 
4 | Cn1cnnc1C[C@]1(c2cccc(N3Cc4c(cc(CN5CCN(C[C@H]6CC[C@H](OC7CCN(c8cccc9c8n(C)c(=O)n9C8CCC(=O)NC8=O)CC7)CC6)CC5(C)C)cc4C(F)(F)F)C3=O)c2)C[C@H](C#N)C1 (stereo partly shown) [Example 274, (1r,3r)-3-(3-{6-[(2,2-dimethyl-4-{[(1r,4r)-4-({1-[1-(2,6-dioxopiperidin-3-yl)-3-methyl-2-oxo-2,3-dihydro-1H-1,3-benzodiazol-4-yl]piperidin-4-yl}oxy)cyclohexyl]methyl}piperazin-1-yl)methyl]-1-oxo-4-(trifluoromethyl)-2,3-dihydro-1H-isoindol-2-yl}phenyl)-3-[(4-methyl-4H-1,2,4-triazol-3-yl)methyl]cyclobutane-1-carbonitrile] | < 5 | > 70
5 | CC(C)n1c(=O)n(C2CCC(=O)NC2=O)c2cccc(N3CCC(O[C@H]4CC[C@H](CN5CCN(Cc6cc7c(c(C(F)(F)F)c6)CN(c6cccc([C@]8(Cc9nncn9C)C[C@@H](C#N)C8)c6)C7=O)C(C)(C)C5)CC4)CC3)c21 (stereo partly shown) [Example 275, (1r,3r)-3-(3-{6-[(2,2-dimethyl-4-{[(1r,4r)-4-({1-[1-(2,6-dioxopiperidin-3-yl)-2-oxo-3-(propan-2-yl)-2,3-dihydro-1H-1,3-benzodiazol-4-yl]piperidin-4-yl}oxy)cyclohexyl]methyl}piperazin-1-yl)methyl]-1-oxo-4-(trifluoromethyl)-2,3-dihydro-1H-isoindol-2-yl}phenyl)-3-[(4-methyl-4H-1,2,4-triazol-3-yl)methyl]cyclobutane-1-carbonitrile] | 5 to 50 | 35 to 70
6 | CC1c2nc(N3CCC(O[C@H]4CC[C@H](CN5CCN(Cc6cc(C(F)(F)F)c7c(n6)C(=O)N(c6cccc(C8(Cc9nncn9C)COC8)c6)C7)CC5)CC4)CC3)ccc2C(=O)N1C1CCC(=O)NC1=O (stereo partly shown) [Example 282, 3-[7-methyl-2-[4-[4-[[4-[[6-[3-[3-[(4-methyl-1,2,4-triazol-3-yl)methyl]oxetan-3-yl]phenyl]-7-oxo-4-(trifluoromethyl)-5H-pyrrolo[3,4-b]pyridin-2-yl]methyl]piperazin-1-yl]methyl]cyclohexoxy]-1-piperidyl]-5-oxo-7Hpyrrolo[3,4-b]pyridin-6-yl]piperidine-2,6-dione] | > 500 | 
7 | CC1c2nc(N3CCC(CN4CCN(CC5CCN(Cc6cc7c(c(C(F)(F)F)c6)CN(c6cccc([C@]8(Cc9nncn9C)C[C@@H](C#N)C8)c6)C7=O)CC5)C(C)(C)C4)CC3)ccc2C(=O)N1C1CCC(=O)NC1=O (stereo partly shown) [Example 287, (1r,3r)-3-(3-{6-[(4-{[4-({1-[6-(2,6-dioxopiperidin-3-yl)-7-methyl-5-oxo-5H,6H,7H-pyrrolo[3,4-b]pyridin-2-yl]piperidin-4-yl}methyl)-2,2-dimethylpiperazin-1-yl]methyl}piperidin-1-yl)methyl]-1-oxo-4-(trifluoromethyl)-2,3-dihydro-1H-isoindol-2-yl}phenyl)-3-[(4-methyl-4H-1,2,4-triazol-3-yl)methyl]cyclobutane-1-carbonitrile] | > 500 | 
8 | CC(C)n1c(=O)n(C2CCC(=O)NC2=O)c2ccc(N3CCN(Cc4ccc(-c5cc6c(c(C(F)(F)F)c5)CN(c5cccc([C@]7(Cc8nncn8C)C[C@@H](C#N)C7)c5)C6=O)cc4)CC3)cc21 (stereo partly shown) [Example 295, (1r,3r)-3-(3-{6-[4-({4-[1-(2,6-dioxopiperidin-3-yl)-2-oxo-3-(propan-2-yl)-2,3-dihydro-1H-1,3-benzodiazol-5-yl]piperazin-1-yl}methyl)phenyl]-1-oxo-4-(trifluoromethyl)-2,3-dihydro-1H-isoindol-2-yl}phenyl)-3-[(4-methyl-4H-1,2,4-triazol-3-yl)methyl]cyclobutane-1-carbonitrile] | > 500 | 

Continued, values first:

Row | DC50 [nM] | Dmax [%] | SMILES
9 | < 5 | > 70 | Cc1cc(N2CCC(O[C@H]3CC[C@@H](CN4CCN(C[C@H]5CCCN(Cc6cc7c(c(C(F)(F)F)c6)CN(c6cccc(C8(Cc9nncn9C)COC8)c6)C7=O)C5)C(C)(C)C4)CC3)CC2)c(F)c2c1C(=O)N(C1CCC(=O)NC1=O)C2 (stereo partly drawn) [Example 269, 3-[4-fluoro-7-methyl-1-oxo-5-(4-{[(1r,4r)-4-[(3,3-dimethyl-4-{[(3S)-1-{[2-(3-{3-[(4-methyl-4H-1,2,4-triazol-3-yl)methyl]oxetan-3-yl}phenyl)-3-oxo-7-(trifluoromethyl)-2,3-dihydro-1H-isoindol-5-yl]methyl}piperidin-3-yl]methyl}piperazin-1-yl)methyl]cyclohexyl]oxy}piperidin-1-yl)-2,3-dihydro-1H-isoindol-2-yl]piperidine-2,6-dione]
10 | < 5 | > 70 | Cn1cnnc1CC1(c2cccc(N3Cc4c(cc(CN5CCC[C@H](CN6CCN(C[C@H]7CC[C@@H](OC8CCN(c9ccc%10c(c9F)CN(C9CCC(=O)NC9=O)C%10=O)CC8)CC7)CC6(C)C)C5)cc4C(F)(F)F)C3=O)c2)CCC1 (stereo partly drawn) [Example 270, 3-[4-fluoro-1-oxo-5-(4-{[(1r,4r)-4-[(3,3-dimethyl-4-{[(3S)-1-{[2-(3-{1-[(4-methyl-4H-1,2,4-triazol-3-yl)methyl]cyclobutyl}phenyl)-3-oxo-7-(trifluoromethyl)-2,3-dihydro-1H-isoindol-5-yl]methyl}piperidin-3-yl]methyl}piperazin-1-yl)methyl]cyclohexyl]oxy}piperidin-1-yl)-2,3-dihydro-1H-isoindol-2-yl]piperidine-2,6-dione]
11 | > 500 |  | CC1c2c(cc(CN3CCN(C[C@H]4CC[C@H](OC5CCN(c6ccc7c(c6F)CN(C6CCC(=O)NC6=O)C7=O)CC5)CC4)CC3(C)C)cc2C(F)(F)F)C(=O)N1c1cccc(C2(Cc3nncn3C)COC2)c1 (stereo partly shown) [Example 279, 3-[4-fluoro-1-oxo-5-(4-{[(1r, 4r)-4-[(3,3-dimethyl-4-{[1-methyl-2-(3-{3-[(4-methyl-4H-1,2,4-triazol-3-yl)methyl]oxetan-3-yl}phenyl)-3-oxo-7-(trifluoromethyl)-2,3-dihydro-1H-isoindol-5-yl]methyl}piperazin-1-yl)methyl]cyclohexyl]oxy}piperidin-1-yl)-2,3-dihydro-1H-isoindol-2-yl]piperidine-2,6-dione]
12 | > 500 |  | Cn1cnnc1CC1(c2cccc(-n3cc4c(C(F)(F)F)cc(CN5CCC[C@H](CN6CCN(CC7CCN(c8ccc9c(c8F)CN(C8CCC(=O)NC8=O)C9=O)CC7)CC6(C)C)C5)cc4n3)c2)COC1 (stereo partly drawn) [Example 285, 3-(5-{4-[(3,3-dimethyl-4-{[(3S)-1-{[2-(3-{3-[(4-methyl-4H-1,2,4-triazol-3-yl)methyl]oxetan-3-yl}phenyl)-4-(trifluoromethyl)-2H-indazol-6-yl]methyl}piperidin-3-yl]methyl}piperazin-1-yl)methyl]piperidin-1-yl}-4-fluoro-1-oxo-2,3-dihydro-1H-isoindol-2-yl)piperidine-2,6-dione]
13 | > 500 |  | CC(C)n1c(=O)n(C2CCC(=O)NC2=O)c2cccc(N3CCC(CN4CCN(C[C@H]5CCCN(Cc6cc7c(c(C(F)(F)F)c6)CN(c6cccc(C8(Cc9nncn9C)CC(C#N)C8)c6)C7=O)C5)C(C)(C)C4)CC3)c21 (stereo partly drawn) [Example 288, (1r*,3r*)-3-[3-(6-{[(3S)-3-{[4-({1-[1-(2,6-dioxopiperidin-3-yl)-2-oxo-3-(propan-2-yl)-2,3-dihydro-1H-1,3-benzodiazol-4-yl]piperidin-4-yl}methyl)-2,2-dimethylpiperazin-1-yl]methyl}piperidin-1-yl]methyl}-1-oxo-4-(trifluoromethyl)-2,3-dihydro-1H-isoindol-2-yl)phenyl]-3-[(4-methyl-4H-1,2,4-triazol-3-yl)methyl]cyclobutane-1-carbonitrile]
